Source: patent US11746136B2, “Composition and methods for disruption of bacterial biofilms without accompanying inflammation” (Research Institute at Nationwide Children's Hospital, priority 2017, dated 2023)

Columns and labels:
branched DNA structures = experiment: Affinity to branched DNA structures; assay type: binding; conditions: effect of the C45S mutation
Acinetobacter baumanii = experiment: Anti-biofilm effect on in vitro preformed 24-hour biofilm (CLSM, COMSTAT); assay type: cell-based; conditions: 5 μg/ml added at 24h to preformed biofilm, 16 h incubation; decrease vs control
Method: (§1) To determine the antibiofilm function of the variant HMGB1 (mHMGB1 (C45S)), Applicants expressed and purified human recombinant HMGB1 (rHMGB1) and recombinant variant HMGB1 (mHMGB1 (C45S)) in E. coli. In vitro preformed 24-hour biofilms formed by multiple human pathogens as indicated in Table 1 were incubated with 5 μg/ml rHMGB1 or mHMGB1 (C45S) for 16 hours. Enterococcus faecium biofilms were incubated with 20 μg/ml rHMGB1 or mHMGB1 (C45S) for 16 hours. Biofilms were washed and stained with LIVE/DEAD® stain and analyzed using a confocal laser scanning microscope and COMSTAT analysis. Applicants observed that mHMGB1 (C45S) was effective at disrupting each of the in vitro preformed biofilms as indicated by significant reduction in average thickness and biomass compared to the control (Table 1).
(§2) HMGB1 isoforms (5 μg/ml) were added at 24h to in vitro preformed bacterial biofilms. After 16 h of incubation (40h total), biofilms were washed and stained with LIVE/DEAD® followed by visualization using CLSM. Biofilms were analyzed by Comstat to calculate average thickness^a (AT) and biomass^a (BM).

Pseudomonas aeruginosa = experiment: as above; assay type: cell-based; conditions: 5 μg/ml added at 24h to preformed biofilm, 16 h incubation; decrease vs control
Method: as §1, §2

[1] = test system: Nontypeable Haemophilus influenzae; experiment: as above; assay type: cell-based; conditions: 5 μg/ml added at 24h to preformed biofilm, 16 h incubation; decrease vs control
Method: as §1, §2

[2] = test system: Aggregatibacter actinomycetemcomitans; experiment: as above; assay type: cell-based; conditions: 5 μg/ml added at 24h to preformed biofilm, 16 h incubation; decrease vs control
Method: as §1, §2

Uropathogenic E. coli = experiment: as above; assay type: cell-based; conditions: 5 μg/ml added at 24h to preformed biofilm, 16 h incubation; decrease vs control
Method: as §1, §2

Enterobacter spp. = experiment: as above; assay type: cell-based; conditions: 5 μg/ml added at 24h to preformed biofilm, 16 h incubation; decrease vs control
Method: as §1, §2

Klebsiella pneumoniae = experiment: as above; assay type: cell-based; conditions: 5 μg/ml added at 24h to preformed biofilm, 16 h incubation; decrease vs control
Method: as §1, §2

Burkholderia cenocepacia [3] = experiment: as above; assay type: cell-based; conditions: 5 μg/ml added at 24h to preformed biofilm, 16 h incubation; decrease vs control
Method: as §1, §2

Enterococcus faecium = experiment: as above; assay type: cell-based; conditions: 20 μg/ml added at 24h to preformed biofilm, 16 h incubation; decrease vs control
Method: as §1, §2

[4] = Consequences of bacterial dispersal from biofilm in vivo (second site infections, sepsis)
Excerpt: Also, this dispersal effect could result in sepsis.

Staphylococcus aureus = experiment: Anti-biofilm effect on in vitro preformed 24-hour biofilm (CLSM, COMSTAT); assay type: cell-based; parameters: key: ↓: 20-30% decrease; ↓↓: 31-50% decrease; ↓↓↓: >51% decrease; ↔: No change; conditions: 5 μg/ml added at 24h to preformed biofilm, 16 h incubation; decrease vs control
Method: as §1, §2

[5] = test system: NTHI strain 86-028NP biofilms; experiment: Chinchilla model of experimental otitis media, clearance of preformed NTHI biofilms; assay type: in vivo; conditions: 4-day old NTHI biofilm, two doses (day 4 and 5; 5 μg each) into middle ear, scored day 6, vs diluent
Method: Diluent, 5 μg rHMGB1, or 5 mHMGB1 (C45S) were delivered directly to the middle ears of chinchillas at 4 and 5 days post infection with NTHI. Animals were sacrificed 24 h later and their middle ears were imaged (FIG. 1A) and blindly scored (FIG. 1B) based on the criteria described in the bottom of FIG. 1A. Bars represent SEM. ***P<0.001.
Diluent or 5 μg rHMGB1 or mHMGB1 (C45 S) were delivered directly to middle ears of chinchillas at 4 and 5 days post infection with NTHI. Animals were sacrificed 24 h later, and their middle ears were imaged (FIG. 6A) and blindly scored (FIG. 6B) based on the criteria described in the bottom of (FIG. 6A). Bars represent SEM. ***P<0.001.
To determine the antibiofilm function of mHMGB1 (C45S) in vivo, Applicants employed two distinct animal models. In the first model Applicants tested the ability of rHMGB1 and mHMGB1 (C45S) to clear preformed NTHI biofilms in Applicants' well-established chinchilla model of experimental OM (Novotny et al. 2011; 2013b; Novotny et al. 2016). Applicants first established NTHI strain 86-028NP biofilms in the chinchilla middle ear for 4 days. […] On day 6 the animals were sacrificed and the middle ears were blindly scored for the presence of any remaining biofilm. […] After 4h, mice were sacrificed and total neutrophils were quantified in peritoneal lavage.

Burkholderia cenocepacia [6] = assay type: in vivo, C57BL/6 mice; conditions: for bacterial burden (CFUs) in BAL: 10^7 CFU intratracheally, 5 μg added simultaneously, after 18 hours, vs control
Method: C57BL/6 mice were infected with 10^7 CFU i.t., and simultaneously received rHMGB1 or mHMGB1 (C45S). After 18 h, (FIG. 2A) B. cenocepacia CFUs were quantified in BAL, (FIG. 2B) total host cells infiltrating into the lung were enumerated in BAL, and (FIG. 2C) BAL cells were stained with anti CD45, CD11b and Ly-6G to measure neutrophil migration. Bars represent standard deviation. *P<0.05; **P<0.005. (FIG. 2D) Lungs were collected 72 hpi. Tissue was fixed and embedded in paraffin, sectioned and stained with H&E. All panels show a magnification of 10×.
C57BL/6 mice were infected with 10^7 CFU i.t., and simultaneously received […] rHMGB1 or mHMGB1 (C45 S). (FIG. 7A) Aggregates of B. cenocepacia were visible by fluorescence microscopy in sections probed with an α-B. cenocepacia antibody. After 18 h, (FIG. 7B) CFUs were quantified in BAL, and (FIG. 7C) BAL cells were stained with α-CD45, CD11b, and Ly-6G to measure neutrophil migration. Bars represent SD. *P<0.05.
To determine the antibiofilm function of mHMGB1 (C45S) in vivo, Applicants employed two distinct animal models. In the first model Applicants tested the ability of rHMGB1 and mHMGB1 (C45S) to clear preformed NTHI biofilms in Applicants' well-established chinchilla model of experimental OM (Novotny et al. 2011; 2013b; Novotny et al. 2016). Applicants first established NTHI strain 86-028NP biofilms in the chinchilla middle ear for 4 days. Applicants then treated the 4-day old NTHI biofilm with two doses (day 4 and 5; 5 μg each) of rHMGB1, mHMGB1 (C45S) or diluent. On day 6 the animals were sacrificed and the middle ears were blindly scored for the presence of any remaining biofilm. […] In the second model, Applicants tested the ability of rHMGB1 and mHMGB1 (C45S) to inhibit biofilm development of Burkholderia cenocepacia in the murine airways. C57BL/6 mice were infected with 10^7 CFU of B. cenocepacia intratracheally and 5 μg of rHMGB1 or mHMGB1 (C45S) was added simultaneously. After 18 hours, the animals were sacrificed and bronchoalveolar lavage (BAL) and lungs were collected. […] Lastly, Applicants validated the inflammatory activity of rHMGB1 and mHMGB1 (C45S) in an in vivo chemotaxis model to determine the ability to recruit neutrophils (Orlova et al. 2007; Penzo et al. 2010). C57BL/6 mice were injected with 5 μg of either mHMGB1 (C45S) or rHMGB1 or 1 ml of 4% thioglycollate. After 4h, mice were sacrificed and total neutrophils were quantified in peritoneal lavage.

[7] = test system: Uropathogenic E. coli UTI89; experiment: HMGB1 added at seeding and at 24h to UPEC biofilm; assay type: cell-based; conditions: 0.1, 1 and 5 μg/ml added at seeding and at 24h
Method: Applicants added HMGB1 at 0.1, 1 and 5 μg/ml at seeding and at 24h to a biofilm formed by Uropathogenic E. coli UTI89. […] Based on this information, Applicants hereby disclose a method for inhibiting, competing or titrating the binding of a deoxyribonucleic acid B II (DNABII) polypeptide to a microbial DNA in a biofilm, comprising, or alternatively consisting essentially of, or yet further consisting of, contacting the microbial DNA in the biofilm with an effective amount of an isolated or recombinant polypeptide comprising a modified high mobility group-box 1 domain (mHMGB1) comprising a C45S substitution thereby inhibiting, competing or titrating the binding of the DNABII polypeptide to the microbial DNA. The contacting can be accomplished in vitro or in vivo. Non-limiting examples of organisms that promote our cause the biofilm include one or more of Burkholderia cenocepacia, Enterobacter spp., Staphylococcus aureus, Klebsiella pneumoniae, Acinetobacter baumanii, Pseudomonas aeruginosa, Enterococcus faecium, Uropathogenic Escherichia coli (UPEC), Non-typeable Haemophilus influenzae (NTHI), and/or Aggregatibacter actinomycetemcomitans.

| Molecule | average thickness (AT) (Acinetobacter baumanii) | biomass (BM) (Acinetobacter baumanii) | average thickness (AT) (Pseudomonas aeruginosa) | biomass (BM) (Pseudomonas aeruginosa) | average thickness (AT) [1] | biomass (BM) [1] | average thickness (AT) [2] | biomass (BM) [2] | average thickness (AT) (Uropathogenic E. coli) | biomass (BM) (Uropathogenic E. coli) | average thickness (AT) (Enterobacter spp.) | biomass (BM) (Enterobacter spp.) | average thickness (AT) (Klebsiella pneumoniae) | biomass (BM) (Klebsiella pneumoniae) | average thickness (AT) (Burkholderia cenocepacia [3]) | biomass (BM) (Burkholderia cenocepacia [3]) | average thickness (AT) (Enterococcus faecium) | biomass (BM) (Enterococcus faecium) | average thickness (AT) (Staphylococcus aureus) | biomass (BM) (Staphylococcus aureus) | also measured |
| --- | --- | --- | --- | --- | --- | --- | --- | --- | --- | --- | --- | --- | --- | --- | --- | --- | --- | --- | --- | --- | --- |
| mHMGB1 (C45S): variant human HMGB1 with the cysteine at position 45 substituted with serine, expressed in E. coli (MGKGDPKKPRGKMSSYAFFVQTCREEHKKKHPDASVNFSEFSKKSSERWK) | ↓↓↓ (>51% decrease) | ↓↓↓ (>51% decrease) | ↓↓↓ (>51% decrease) | ↓↓↓ (>51% decrease) | ↓ (20-30% decrease) | ↓ (20-30% decrease) | ↓ (20-30% decrease) | ↓ (20-30% decrease) | ↓↓↓ (>51% decrease) | ↓↓↓ (>51% decrease) | ↓↓↓ (>51% decrease) | ↓↓↓ (>51% decrease) | ↓↓↓ (>51% decrease) | ↓↓↓ (>51% decrease) | ↓↓↓ (>51% decrease) | ↓↓↓ (>51% decrease) | ↓↓ (31-50% decrease) | ↓↓ (31-50% decrease) | ↓↓↓ (>51% decrease) | ↓↓↓ (>51% decrease) | affinity to branched DNA structures (branched DNA structures): increases the affinity of the molecule to branched DNA structures; second site infections or sepsis after dispersal of bacteria from biofilm [4]: None of these consequences has been observed; clearing of biofilm from the middle ear (blindly scored) [5]: very effective at clearing the biofilms from the middle ear; B. cenocepacia CFUs in BAL compared to rHMGB1 (Burkholderia cenocepacia [6]; 10^7 CFU i.t., simultaneous treatment, after 18 h, compared to rHMGB1): significant decreases; bacterial burden (CFUs) in BAL (Burkholderia cenocepacia [6]): effective at reducing the bacterial burden in BAL; inflammatory cell infiltration compared to rHMGB1 (Burkholderia cenocepacia [6]; mouse, in vivo): significant decreases; lung damage (H&E) (Burkholderia cenocepacia [6]; mouse, in vivo): more resembled uninfected mouse lungs |
| rHMGB1: recombinant HMGB1 derived from a human, expressed and purified in E. coli, used as comparator to mHMGB1 (C45S) [reference compound] | ↓↓↓ (>51% decrease) | ↓↓ (31-50% decrease) | ↓↓↓ (>51% decrease) | ↓↓↓ (>51% decrease) | ↓ (20-30% decrease) | ↓ (20-30% decrease) | ↓ (20-30% decrease) | ↓ (20-30% decrease) | ↓↓ (31-50% decrease) | ↓↓ (31-50% decrease) | ↓↓↓ (>51% decrease) | ↓↓↓ (>51% decrease) | ↓↓↓ (>51% decrease) | ↓↓↓ (>51% decrease) | ↓↓↓ (>51% decrease) | ↓↓↓ (>51% decrease) | ↓↓↓ (>51% decrease) | ↓↓↓ (>51% decrease) | ↔ | ↔ | clearing of biofilm from the middle ear (blindly scored) [5]: very effective at clearing the biofilms from the middle ear; bacterial burden (CFUs) in BAL (Burkholderia cenocepacia [6]): effective at reducing the bacterial burden in BAL; lung damage (H&E) (Burkholderia cenocepacia [6]; mouse, in vivo): severe inflammation and increased neutrophil response |
| HMGB1: HMGB1 added to UPEC UTI89 biofilm; probably the recombinant human HMGB1 (rHMGB1) (protein, UniProt P09429 1-215, looked up) High mobility group protein B1: MGKGDPKKPRGKMSSYAFFVQTCREEHKKKHPDASVNFSEFSKKCSERWKTMSAKEKGKFEDMAKADKARYEREMKTYIPPKGETKKKFKDPNAPKRPPSAFFLFCSEYRPKIKGEHPGLSIGDVAKKLGEMWNNTAADDKQPYEKKAAKLKEKYEKDIAAYRAKGKPDAAKKGVVKAEKSKKKKEEEEDEEDEEDEEEEEDEEDEDEEEDDDDE | – | – | – | – | – | – | – | – | – | – | – | – | – | – | – | – | – | – | – | – | disruption of UPEC biofilms [7]: dose-dependent disruption of UPEC biofilms |
